Results as given in patent US11919856B2, “Compounds” (UCL BUSINESS LTD, priority 2018, dated 2024).

Columns and labels:
[1] = biological target: T1, Z-alpha-1-antitrypsin (Z-A1AT) (Homo sapiens, UniProt P01009, E366K/V237A); experiment: Inhibition of Z-alpha-1-antitrypsin polymerisation TR-FRET assay; assay type: biochemical; conditions: mean, 5 nM Z-A1AT, 72 hours at 37° C.
T1 construct: Z-alpha-1-antitrypsin was purified from human plasma; from tissue; host or cells: human plasma of ZZ homozygous donors
Excerpt: The potencies of the compounds of the invention for inhibition of Z-alpha-1-antitrypsin (Z-A1AT) polymerisation can be determined by a time-resolved fluorescence energy transfer (TR-FRET) assay performed on purified Z-A1AT as described herein. […] Mean activity data for the assay described below for compounds 1-4:
Inhibition of Z-Alpha-1-Antitrypsin Polymerisation Assay Protocol
Z-alpha-1-antitrypsin was purified from human plasma of donors homozygous for the Z-A1AT form. The purification was performed according to a published protocol (Lomas et al. Biochemistry 1993; 32:500-508) involving ammonium sulphate precipitation, thiol exchange fractionation, and anion exchange fractionation.
Purified Z-A1AT was diluted to 5 nM in PBS buffer with 0.01% Tween-20 and mixed with different concentrations of inhibitor compounds dissolved in DMSO, in 384-well assay plates. Following incubation for 72 hours at 37° C., the amount of Z-A1AT polymer was detected using a time-resolved fluorescence resonance energy transfer (TR-FRET) assay format, by adding an antibody detection mix to the assay plates. The detection mix contained an A1AT-polymer specific monoclonal antibody (Miranda et al. Hepatology 2010; 52: 1078-1088), Terbium-labelled anti-mouse antibody, a polyclonal rabbit anti-A1AT antibody, and an Alexa488-labelled anti-rabbit antibody. TR-FRET data were normalised to controls (DMSO vehicle control giving 0% inhibition, saturating concentrations of an active compound giving 100% inhibition), and IC50 values were derived by fitting 4-parameter logistic curves to the normalised data.
An antibody-based time-resolved fluorescence resonance energy transfer (TR-FRET) assay was used to monitor the polymerisation of 5 nM Z α1-antitrypsin following incubation with varying concentrations of compounds at 37° C. for 72 hours. This assay used the 2C1 monoclonal antibody that is specific to pathological polymers of α1-antitrypsin (Miranda et al. Hepatology 2010; 52: 1078-1088), a polyclonal antibody that binds to all forms of α1-antitrypsin, an anti-mouse IgG fluorescence donor (Eu-W1024) and an anti-rabbit IgG acceptor (APC).

[2] = test system: Z α1-antitrypsin polymer; conditions: 2 weeks of dosing; Hidvegi et al. Science 2010; cited from earlier work

T1 sequence (P01009 25-418 V237A/E366K): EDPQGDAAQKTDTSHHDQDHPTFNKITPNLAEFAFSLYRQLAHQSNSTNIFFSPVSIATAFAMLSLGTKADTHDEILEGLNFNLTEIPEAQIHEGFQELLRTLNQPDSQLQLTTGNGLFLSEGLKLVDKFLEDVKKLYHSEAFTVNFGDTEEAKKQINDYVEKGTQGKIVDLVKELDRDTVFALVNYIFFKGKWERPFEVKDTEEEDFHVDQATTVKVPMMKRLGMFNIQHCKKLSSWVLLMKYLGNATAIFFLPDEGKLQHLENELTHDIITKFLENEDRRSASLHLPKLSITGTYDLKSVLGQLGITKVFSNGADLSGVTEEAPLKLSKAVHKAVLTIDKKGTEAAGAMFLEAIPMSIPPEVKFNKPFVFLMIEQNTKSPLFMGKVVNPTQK

Row | IC50 [1] | Compound | effects on liver polymer in Z α1-antitrypsin transgenic mice [2]
1 | 6.31 nM | CCC[C@@H](NC(=O)c1ccc(F)c2c1CC(=O)N2)[C@@H](O)c1cccc(F)c1Cl [Compound 4, N-((1S,2R)-1-(2-chloro-3-fluorophenyl)-1-hydroxypentan-2-yl)-7-fluoro-2-oxoindoline-4-carboxamide] | 
2 |  | NC(=O)N1c2ccccc2C=Cc2ccccc21 [Carbamazapine] | pronounced effects
3 | 2.51 nM | CCC[C@@H](NC(=O)c1cccc2c1CC(=O)N2)[C@@H](O)c1cccc(Cl)c1C [Compound 2, N-((1S,2R)-1-(3-chloro-2-methylphenyl)-1-hydroxypentan-2-yl)-2-oxoindoline-4-carboxamide] | 
4 | 3.16 nM | CCC[C@@H](NC(=O)c1ccc(F)c2c1CC(=O)N2)[C@@H](O)c1cccc(C#N)c1Cl [Compound 3, N-((1S,2R)-1-(2-chloro-3-cyanophenyl)-1-hydroxypentan-2-yl)-7-fluoro-2-oxoindoline-4-carboxamide] | 
